# Measurements taken from ChEMBL document CHEMBL1122779, “Antiinflammatory agents. 3. Synthesis and pharmacological evaluation of 2-amino-3-benzoylphenylacetic acid and analogues” (J Med Chem, 1984).
# What was measured:
# Rattus norvegicus [1] = experiment: Percent change in average volume of pleural fluid at a dose of 4.0 mg/kg and 5-h response by Evans blue-carrageenan induced pleural effusion assay.; type: functional
# Rattus norvegicus [2] = experiment: Percent change in average volume of pleural fluid at a dose 4 mg/kg of indomethacin and 5-h response is evaluated by Evans blue-carrageenan induced pleural effusion assay; type: functional
# Cyclooxygenase = biological target: T1, Cyclooxygenase (Bos taurus, UniProt O62664+O62698)
# T1 sequence (O62664 whole entry): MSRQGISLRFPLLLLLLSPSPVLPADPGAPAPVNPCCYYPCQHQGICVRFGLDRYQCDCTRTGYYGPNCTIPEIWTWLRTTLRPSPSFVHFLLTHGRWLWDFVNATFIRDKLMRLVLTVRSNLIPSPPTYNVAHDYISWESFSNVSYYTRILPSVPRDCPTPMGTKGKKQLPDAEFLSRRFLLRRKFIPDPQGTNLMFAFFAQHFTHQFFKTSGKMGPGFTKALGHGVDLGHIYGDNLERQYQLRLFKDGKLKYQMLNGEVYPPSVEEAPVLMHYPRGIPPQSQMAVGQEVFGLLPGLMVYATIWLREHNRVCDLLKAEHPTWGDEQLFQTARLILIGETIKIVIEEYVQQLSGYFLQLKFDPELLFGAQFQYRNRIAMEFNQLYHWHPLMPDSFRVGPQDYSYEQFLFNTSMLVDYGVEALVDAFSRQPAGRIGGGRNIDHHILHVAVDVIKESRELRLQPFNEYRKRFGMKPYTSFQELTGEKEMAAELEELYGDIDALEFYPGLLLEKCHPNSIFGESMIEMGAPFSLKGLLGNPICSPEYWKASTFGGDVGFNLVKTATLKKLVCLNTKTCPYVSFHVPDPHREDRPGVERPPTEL
# T1 sequence (O62698 whole entry): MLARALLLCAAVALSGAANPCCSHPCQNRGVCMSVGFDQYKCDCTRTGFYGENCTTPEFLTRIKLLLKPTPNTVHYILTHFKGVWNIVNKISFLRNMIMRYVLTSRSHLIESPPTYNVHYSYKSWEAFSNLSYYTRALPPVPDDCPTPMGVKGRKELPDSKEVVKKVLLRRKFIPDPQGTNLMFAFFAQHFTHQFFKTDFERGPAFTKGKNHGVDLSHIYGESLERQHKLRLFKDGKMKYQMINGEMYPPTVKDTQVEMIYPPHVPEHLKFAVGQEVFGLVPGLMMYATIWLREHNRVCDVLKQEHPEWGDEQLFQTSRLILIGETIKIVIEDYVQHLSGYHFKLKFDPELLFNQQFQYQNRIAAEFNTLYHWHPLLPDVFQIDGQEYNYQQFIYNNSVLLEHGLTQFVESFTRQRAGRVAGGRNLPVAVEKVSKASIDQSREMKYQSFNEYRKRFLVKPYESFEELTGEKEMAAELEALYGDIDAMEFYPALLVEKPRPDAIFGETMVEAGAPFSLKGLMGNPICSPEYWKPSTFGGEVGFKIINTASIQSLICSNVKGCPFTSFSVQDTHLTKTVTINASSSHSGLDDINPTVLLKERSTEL
# Description: Inhibition of prostaglandin G/H synthase obtained from bovine seminal vesicles.
# Rattus norvegicus [3] = experiment: Percent change in average volume of pleural fluid at a dose of 100 mg/kg and 5-h response by Evans blue-carrageenan induced pleural effusion assay.; type: functional
# Rattus norvegicus [4] = species: Rattus norvegicus; experiment: Evaluated for acute potency in pleural effusion assay; type: functional
# Mus musculus [5] = experiment: Oral analgesic activity was determined in mice by the acetylcholine-induced abdominal constriction assay upon ip administration of acetylcholine bromide 20 min following oral administration; type: functional; settings: Abdomen
# Rattus norvegicus [6] = species: Rattus norvegicus; experiment: Evaluated for chronic potency in adjuvant arthritis assay; type: functional
# Rattus norvegicus [7] = experiment: Acute gastric toxicity (single oral dose) in male fasted rats; type: organism-based, Stomach; settings: in vivo
# Mus musculus [8] = experiment: Oral analgesic activity was determined in mice by the acetylcholine-induced abdominal constriction assay upon ip administration of acetylcholine bromide 5 hours following oral administration; type: functional; settings: Abdomen
# Rattus norvegicus [9] = experiment: Evaluated for chronic intestinal toxicity (multiple oral dose) in rats; type: organism-based; settings: in vivo
Compound,Change (Rattus norvegicus [1]) [%],Change (Rattus norvegicus [2]) [%],IC50 (Cyclooxygenase) [µM],Change (Rattus norvegicus [3]) [%],Potency (Rattus norvegicus [4]),ED50 (Mus musculus [5]) [mg/kg],Potency (Rattus norvegicus [6]),Gastric toxicity (Rattus norvegicus [7]),ED50 (Mus musculus [8]) [mg/kg],Intestinal toxicity (Rattus norvegicus [9])
COc1ccc(C(=O)c2cccc(CC(=O)[O-])c2N)cc1.[Na+],-10,-35,68,–,–,–,–,–,–,–
Cc1ccc(CC(=O)[O-])c(N)c1C(=O)c1ccccc1.[Na+],-38,-1,> 1000,-13,–,–,–,–,–,–
Nc1c(CC(=O)[O-])cc(Br)cc1C(=O)c1ccc(Cl)cc1.[Na+],-26,-40,0.6,-42,–,–,–,–,–,–
Nc1c(CC(=O)[O-])cc(F)cc1C(=O)c1ccc(F)cc1.[Na+],-42,-40,0.2,-42,1.4,0.71,0.01,0.37,–,–
COc1cc(CC(=O)[O-])c(N)c(C(=O)c2ccc(Br)cc2)c1.[Na+],-28,-25,0.9,-33,–,–,–,–,–,–
Nc1c(CC(=O)[O-])cccc1C(=O)c1ccc(-c2ccccc2)cc1.[Na+],-15,-36,0.08,-14,–,–,–,–,–,–
Nc1c(CC(=O)[O-])cccc1C(=O)c1ccc(F)cc1.[Na+],0,-35,0.9,-36,–,–,–,–,–,–
Nc1c(CC(=O)[O-])cc(Cl)cc1C(=O)c1ccc(O)cc1.[Na+],-3,-40,30,-21,–,–,–,–,–,–
Cc1ccc(C(=O)c2cc(C)cc(CC(=O)[O-])c2N)cc1.[Na+],-12,-42,30,-33,–,–,–,–,–,–
Nc1c(CC(=O)[O-])cccc1C(=O)c1ccccc1Cl.[Na+],-22,-33,0.3,-42,–,–,–,–,–,–
Nc1c(CC(=O)[O-])ccc(Cl)c1C(=O)c1ccccc1.[Na+],-4,-35,37,-45,–,–,–,–,–,–
Cc1ccc(C(=O)c2cc(Cl)cc(CC(=O)[O-])c2N)cc1.[Na+],-35,-40,0.02,-44,1.6,0.1,0.1,0.7,0.43,–
CSc1ccc(C(=O)c2cc(C)cc(CC(=O)[O-])c2N)cc1.[Na+],-26,-42,0.4,-47,–,–,–,–,–,–
Cc1ccc(C(=O)c2cc(F)cc(CC(=O)[O-])c2N)cc1.[Na+],-32,-36,0.07,-49,–,–,–,–,–,–
Cc1cc(CC(=O)[O-])c(N)c(C(=O)c2ccc(Cl)cc2Cl)c1.[Na+],-24,-45,1,-43,–,–,–,–,–,–
Cc1ccccc1C(=O)c1cccc(CC(=O)[O-])c1N.[Na+],-13,-25,1,-32,–,–,–,–,–,–
CSc1ccc(C(=O)c2cccc(CC(=O)[O-])c2N)cc1.[Na+],-21,-30,0.1,–,–,–,–,–,–,–
Cc1ccc(C(=O)c2cccc(CC(=O)[O-])c2N)cc1.[Na+],-17,-39,0.3,–,–,–,–,–,–,–

Compound,Change (Rattus norvegicus [1]) [%],Change (Rattus norvegicus [2]) [%],IC50 (Cyclooxygenase) [µM],Change (Rattus norvegicus [3]) [%],Potency (Rattus norvegicus [4]),ED50 (Mus musculus [5]) [mg/kg],Potency (Rattus norvegicus [6]),Gastric toxicity (Rattus norvegicus [7]),ED50 (Mus musculus [8]) [mg/kg],Intestinal toxicity (Rattus norvegicus [9])
Nc1c(CC(=O)[O-])cc(Cl)cc1C(=O)c1ccccc1.[Na+],-17,-35,1,–,–,–,–,–,–,–
Nc1c(CC(=O)[O-])cccc1C(=O)c1ccc(C(F)(F)F)cc1.[Na+],-38,–,1,-24,–,–,–,–,–,–
Nc1c(CC(=O)[O-])cc(F)cc1C(=O)c1ccccc1.[Na+],-9,-20,0.2,-33,–,–,–,–,–,–
CSc1ccc(C(=O)c2cc(Cl)cc(CC(=O)[O-])c2N)cc1.[Na+],-43,-40,0.02,-43,1.8,0.1,0.1,0.9,1.9,–
Cc1cc(CC(=O)[O-])c(N)c(C(=O)c2ccccc2)c1.[Na+],-11,-25,11,-35,–,–,–,–,–,–
Nc1c(CC(=O)[O-])cc(Br)cc1C(=O)c1ccc(Br)cc1.[Na+],-30,-33,0.8,-34,4.2,> 0.32,2.5,1.1,0.2,1
COc1cc(CC(=O)[O-])c(N)c(C(=O)c2ccc(Cl)cc2)c1.[Na+],-26,-37,12,-36,–,–,–,–,–,–
Nc1c(CC(=O)[O-])cc(F)cc1C(=O)c1ccc(Cl)cc1Cl.[Na+],-41,-45,0.1,-46,1.2,0.16,0.13,1,0.65,–
Cc1ccc(C(=O)c2ccccc2)c(N)c1CC(=O)[O-].[Na+],2,-38,3,-39,–,–,–,–,–,–
Nc1c(CC(=O)[O-])cccc1C(=O)c1ccc(Cl)c(Cl)c1.[Na+],-10,-30,50,–,–,–,–,–,–,–
Nc1c(CC(=O)[O-])cccc1C(=O)c1cccc(Cl)c1.[Na+],-15,-33,> 1000,-35,–,–,–,–,–,–
Nc1c(CC(=O)[O-])cc(Cl)cc1C(=O)c1ccc(Br)cc1Cl.[Na+],-25,-36,0.05,-37,4.9,0.66,2.5,1.2,0.19,3.3
CSc1ccc(C(=O)c2cc(F)cc(CC(=O)[O-])c2N)cc1.[Na+],-28,-33,0.008,–,0.4,0.1,0.03,–,> 1,–
Cc1cc(CC(=O)[O-])c(N)c(C(=O)c2ccc(F)cc2)c1.[Na+],0,-42,17,-35,–,–,–,–,–,–
Cc1ccc(C(=O)c2cccc(CC(=O)[O-])c2N)c(C)c1.[Na+],-3,-40,0.1,-38,–,–,–,–,–,–
Cc1cc(CC(=O)[O-])c(N)c(C(=O)c2ccc(Br)cc2)c1.[Na+],-31,-36,0.7,-39,2.8,0.72,1,1.2,0.7,1.1
Nc1c(CC(=O)[O-])cccc1C(=O)c1ccc(Br)cc1Cl.[Na+],-26,-32,0.05,-37,1.6,0.12,7.4,5.6,1.6,1.6
